Data taken from patent US20250170090A1, “METHOD FOR PREVENTING OR TREATING DISEASE OR DISORDER ASSOCIATED WITH ANTINEOPLASTIC AGENT” (ONQUALITY PHARMACEUTICALS CHINA LTD., priority 2022, published 2025).

Tests used:
[1] = test system: chemotherapy-induced hand-foot syndrome; test: Prevention of chemotherapy-induced hand-foot syndrome in rat models (Table 5); type: in vivo, SD rats
Procedure: Rat animal model was constructed. After several days, the rats develop hand-foot syndrome in their paws. After one week of acclimatization (about 200 g), the SD rats are divided into groups of 10 rats each, followed by gavage administration experiment. The chemotherapy drugs were dissolved, and each rat was given a gavage dose of 1 mL/100 g. After gavage, the rats were fixed with a fixed cylinder. NO-NSAID ointment was applied to the paws of the rats in the medication group, and blank ointment was applied to the paws of the rats in the blank group (as blank control). […] Table 5 lists the animal experimental combinations of chemotherapy drugs and NO-NSAID ointment, as well as the corresponding experimental results (where the value in the control rate column=the incidence rate of hand-foot syndrome in the blank group−the incidence rate of hand-foot syndrome in the treatment group).

[2] = test system: hand-foot syndrome caused by anti-tumor agents; test: Treatment of established hand-foot syndrome caused by anti-tumor agents in rats (Table 4); type: in vivo; details: Encorafenib 80 mg/kg once every two days; ointment 1% wt; Days 7
Procedure: After the rats (about 200 g) were fed and adapted for one week, the rats were divided into groups of 10 rats for gavage administration experiment. The anti-tumor agent was dissolved in a mixed solution of Cremophor EL:ethanol=1:1, and diluted with PBS to the required concentration (diluted about 3 times with PBS solution) before gavage. […] Specific experimental procedures followed those outlined in the prevention experiment. […] Table 4 lists the animal experiments using various anti-tumor agents and NO-NSAID ointment, as well as the corresponding experimental results (where the value in the control rate column=the incidence rate of hand-foot syndrome in the blank group−the incidence rate of hand-foot syndrome in the treatment group).

[3] = test system: human intestinal epithelial cells (FHs 74 Int); test: CCK-8 cell viability: alleviation of proliferative toxicity of anti-tumor agents on FHs 74 Int (Table 8-4); type: cell-based; details: NO-NSAID 100 μM
Procedure: (§1) Experiments were conducted using various epithelial cells: Examples 47-51 used human immortalized keratinocytes (HaCaT) with corresponding results in Table 8-1; Examples 52-56 used human oral keratinocytes (HOK) with results in Table 8-2; Examples 57-61 used gastric epithelial cells (GES-1) with results in Table 8-3; Examples 62-66 used human intestinal epithelial cells (FHs 74 Int) with results in Table 8-4.
(§2) The cultured cells were digested the suspended, counted, and seed into a 96-well plate with 5,000-10,000 cells per well. The wells are divided into the following groups: blank control group, anti-tumor agent group, anti-tumor agent+NO-NSAID group, anti-tumor agent solvent group, NO-NSAID solvent control group. Wherein each well of each group contained a basic medium, and the final liquid volume contained in each well was about 100 μL. The grouping situation was as follows: • 1) Blank control group: no solution was added except normally replacing the medium; • 2) Anti-tumor agent group: added the anti-tumor agent solution (the final concentration was shown in Table 8-1 to Table 8-4, the solvent of the anti-tumor agent solution was DMSO); • 3) Anti-tumor agent+NO-NSAID group: added the anti-tumor agent solution and the NO-NSAID solution (the final concentrations of anti-tumor agent and NO-NSAID were shown in Table 8-1 to Table 8-4, and according to the solubility of NO-NSAID, the solvent of NO-NSAID solution was selected as ethanol or sterile water, and minor volume differences in each group were adjusted by added the corresponding solvent); • 4) Anti-tumor agent solvent group: an equal volume of DMSO as contained in the corresponding anti-tumor agent solution in Group 2) was added; • 5) NO-NSAID control group: the same volume and type of solvent (for example, ethanol or sterile water) corresponding to the NO-NSAID contained in group 3) was added.
(§3) The anti-tumor agent solvent group was not involved in data processing and was only used as a reference for evaluating experimental system error. The NO-NSAID solvent control group was used for data correction to eliminate the influence of the solvent on the results.
(§4) After culturing for 24-48 hours, the Cell Counting Kit-8 (CCK-8) detection kit (C0037, Shanghai Beyotime Biotechnology Co., Ltd., Beyotime Biotechnology) was used to determine the cell viability. This allows for the calculation of the proliferative toxicity of anti-tumor agent on cell and the mitigating effect of NO-NSAID on proliferative toxicity. The results were statistically analyzed and plotted using GraphPad Prism 6.0 software and t test.

[4] = test system: human oral keratinocytes (HOK); test: CCK-8 cell viability: alleviation of proliferative toxicity of anti-tumor agents on HOK (Table 8-2); type: cell-based; details: NO-NSAID 100 μM
Procedure: as §1, §2, §3, §4

[5] = test system: human immortalized keratinocytes (HaCaT); test: CCK-8 cell viability: alleviation of proliferative toxicity of anti-tumor agents on HaCaT (Table 8-1); type: cell-based; details: NO-NSAID 100 μM, percentage increase in viable cells vs anti-tumor agent alone
Procedure: as §1, §2, §3, §4

[6] = test system: gastric epithelial cells (GES-1); test: CCK-8 cell viability: alleviation of proliferative toxicity of anti-tumor agents on GES-1 (Table 8-3); type: cell-based, human; details: NO-NSAID 100 μM
Procedure: as §1, §2, §3, §4

[7] = Capecitabine 4000 mg/kg once a day, ointment 2% wt, Days 40

CC(=O)Oc1ccccc1C(=O)OCc1no[n+]([O-])c1C(N)=O [Compound A6]
Control rate [1, 7]: 42.86% | Response rate [2]: 16.67%

CC(C)Cc1ccc(C(C)C(=O)OCO/N=[N+](\[O-])N(C)C)cc1 (centres unmarked) [Compound A4]
Response rate % (average) ([3]; Afatinib (10 μM)): 33% | Response rate % (average) ([3]; Cabozantinib (5 μM)): 28% | Response rate % (average) ([3]; Dabrafenib (10 μM)): −9% | Response rate % (average) ([3]; Everolimus (5 μM)): 18% | Response rate % (average) ([3]; Infigratinib (15 μM)): 17% | Response rate % (average) ([3]; Lapatinib (5 μM)): 26% | Response rate % (average) ([3]; Lenvatinib (10 μM)): 38% | Response rate % (average) ([3]; Olmutinib (10 μM)): 16% | Response rate % (average) ([3]; Regorafenib (5 μM)): 31% | Response rate % (average) ([3]; Selumetinib (5 μM)): 14% | Response rate % (average) ([3]; Sorafenib (5 μM)): 24% | Response rate % (average) ([3]; Sunitinib (5 μM)): 23% | Control rate ([1]; Capecitabine 4000 mg/kg once a day, ointment 0.50% wt, Days 40): 25.00% | Control rate [1, 7]: 57.14% | Control rate ([1]; Cytarabine 120 mg/kg twice a day, ointment 0.50% wt, Days 30): 28.57% | Response rate % (average) ([4]; Afatinib (10 μM)): 34% | Response rate % (average) ([4]; Cabozantinib (5 μM)): 24% | Response rate % (average) ([4]; Dabrafenib (10 μM)): 2% | Response rate % (average) ([4]; Everolimus (5 μM)): −3% | Response rate % (average) ([4]; Infigratinib (15 μM)): 18% | Response rate % (average) ([4]; Lapatinib (5 μM)): 0% | Response rate % (average) ([4]; Lenvatinib (10 μM)): 33% | Response rate % (average) ([4]; Olmutinib (10 μM)): 24% | Response rate % (average) ([4]; Regorafenib (5 μM)): 15% | Response rate % (average) ([4]; Selumetinib (5 μM)): −2% | Response rate % (average) ([4]; Sorafenib (5 μM)): 29% | Response rate % (average) ([4]; Sunitinib (5 μM)): 11% | Response rate % (average) ([5]; Afatinib (10 μM)): 31% | Response rate % (average) ([5]; Cabozantinib (5 μM)): 37% | Response rate % (average) ([5]; Dabrafenib (10 μM)): 1% | Response rate % (average) ([5]; Everolimus (5 μM)): −4% | Response rate % (average) ([5]; Infigratinib (15 μM)): 12% | Response rate % (average) ([5]; Lapatinib (5 μM)): 25% | Response rate % (average) ([5]; Lenvatinib (10 μM)): 17% | Response rate % (average) ([5]; Olmutinib (10 μM)): 26% | Response rate % (average) ([5]; Regorafenib (5 μM)): 36% | Response rate % (average) ([5]; Selumetinib (5 μM)): 3% | Response rate % (average) ([5]; Sorafenib (5 μM)): 32% | Response rate % (average) ([5]; Sunitinib (5 μM)): 16% | Response rate % (average) ([6]; Afatinib (10 μM)): 16% | Response rate % (average) ([6]; Cabozantinib (5 μM)): 29% | Response rate % (average) ([6]; Dabrafenib (10 μM)): 6% | Response rate % (average) ([6]; Everolimus (5 μM)): 23% | Response rate % (average) ([6]; Infigratinib (15 μM)): 36% | Response rate % (average) ([6]; Lapatinib (5 μM)): 22% | Response rate % (average) ([6]; Lenvatinib (10 μM)): 36% | Response rate % (average) ([6]; Olmutinib (10 μM)): 21% | Response rate % (average) ([6]; Regorafenib (5 μM)): 29% | Response rate % (average) ([6]; Selumetinib (5 μM)): 2% | Response rate % (average) ([6]; Sorafenib (5 μM)): 22% | Response rate % (average) ([6]; Sunitinib (5 μM)): 0%
